Earlier results, collected in US20210356455A1, “SCREENING AGENTS CAPABLE OF INHIBITING PAIN AND/OR PRURITUS AND METHODS AND COMPOSITIONS FOR TREATING PAIN AND/OR PRURITUS USING SAID AGENTS” (President and Fellows of Harvard College, priority 2020, published 2021).
Each block holds one compound with its values, some of them ahead of it.

Assays:
[1] = target: T1, Mrgpra3 (Mas-related G-protein coupled receptor member A3) (Mus musculus, UniProt Q91WW3)
T1 sequence (Q91WW3 1-302): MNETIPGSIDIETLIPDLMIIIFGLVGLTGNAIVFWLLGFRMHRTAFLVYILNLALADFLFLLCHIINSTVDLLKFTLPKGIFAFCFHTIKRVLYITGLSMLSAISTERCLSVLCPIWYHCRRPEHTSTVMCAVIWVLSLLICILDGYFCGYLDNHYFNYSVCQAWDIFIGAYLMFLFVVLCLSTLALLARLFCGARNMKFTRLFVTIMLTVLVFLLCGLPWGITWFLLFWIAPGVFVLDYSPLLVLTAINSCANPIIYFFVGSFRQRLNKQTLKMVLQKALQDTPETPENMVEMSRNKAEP

[2] = target: Ntsr2 (Neurotensin Receptor 2) (Homo sapiens, UniProt O95665); settings: binding and pharmacological studies
Sequence of Ntsr2 (Neurotensin Receptor 2) (O95665 whole entry, species assumed): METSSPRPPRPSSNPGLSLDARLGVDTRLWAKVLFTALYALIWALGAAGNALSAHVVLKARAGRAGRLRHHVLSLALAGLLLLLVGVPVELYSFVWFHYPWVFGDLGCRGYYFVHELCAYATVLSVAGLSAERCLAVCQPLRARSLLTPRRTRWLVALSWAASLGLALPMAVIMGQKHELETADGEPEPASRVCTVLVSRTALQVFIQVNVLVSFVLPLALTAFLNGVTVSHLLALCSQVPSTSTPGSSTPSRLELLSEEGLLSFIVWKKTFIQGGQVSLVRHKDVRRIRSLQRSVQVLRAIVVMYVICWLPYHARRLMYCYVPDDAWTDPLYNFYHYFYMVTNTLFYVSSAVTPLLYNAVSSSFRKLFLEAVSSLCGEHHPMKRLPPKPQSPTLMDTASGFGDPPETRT

[3] = target: T2, Mrgprd (MAS Related GPR Family Member D) (Homo sapiens, UniProt Q8TDS7); settings: micromolar doses; cells expressing the receptor
T2 sequence (Q8TDS7 whole entry, species assumed): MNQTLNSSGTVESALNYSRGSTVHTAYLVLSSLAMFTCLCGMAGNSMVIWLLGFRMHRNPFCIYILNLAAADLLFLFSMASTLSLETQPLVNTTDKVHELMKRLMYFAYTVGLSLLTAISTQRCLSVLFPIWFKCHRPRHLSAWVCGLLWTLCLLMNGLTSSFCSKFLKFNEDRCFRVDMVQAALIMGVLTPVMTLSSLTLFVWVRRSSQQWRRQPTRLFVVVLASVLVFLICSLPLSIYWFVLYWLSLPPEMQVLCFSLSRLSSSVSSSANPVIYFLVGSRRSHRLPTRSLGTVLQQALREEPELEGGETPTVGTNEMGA

[4] = target: T2, Mrgprd (MAS Related GPR Family Member D); settings: cells expressing the receptor

receptor activation [1]: Activated
Structure (SMILES): CCN(CC)CCCC(C)Nc1ccnc2cc(Cl)ccc12 (stereo not shown) [chloroquine]

affinity for the receptor [2]: high affinity
Structure (SMILES): C[C@@H]1CN([C@H]2CC[C@](C#N)(c3ccc(F)cc3)CC2)CC[C@]1(C(=O)O)c1ccccc1 [levocabastine]

Ca(2+) influx [3]: specifically evoked Ca(2+) influx
Structure (SMILES): NCCC(=O)O [Beta-alanine, beta-alanine]
forskolin-stimulated cAMP production [4]: decreases forskolin-stimulated cAMP production
